# Results published in patent US20100024572A1, “POLYMER NEMS FOR CELL […] MICRO[…] P[…] FOR MICRO-BIOCALORIMETER” (CALIFORNIA INSTITUTE OF TECHNOLOGY, priority 2006, published 2010).
# Test system: individual adherent cells
# Assay: Force measurement from a single adherent cell on microfluidic embedded polymer NEMS force sensor
# Format: cell-based
# Details: 200 pN force resolution, 10 ms time resolution
# Excerpt: Successful micro-fluidic encapsulation is routine and consistently performed at very high yields, (>90%). The force sensing capabilities of the devices have been tested and calibrated by perturbing the force sensors with glass micro-needles mounted on piezo-electric actuators, data shown in FIG. 6A. The force sensors have been tested in micro-fluidics be measuring their response to shear forces generated by fluid flow. The force sensors have been successfully used to measure forces exerted by individual adherent cells and to study the mechanical response of those cells to cytoskeleton perturbing reagents such as Cytochalasin D.
# Such measurements were performed with 200 pN force resolution—an improvement of 25 fold over prior art—and 10 ms time resolution—and improvement of 300 fold over prior art.
# These measurements were performed with 200 pN force resolution—an improvement of 25 fold over prior art—and 10 ms time resolution—and improvement of 300 fold over prior art.
smiles,measurement,setting,value
C=C1[C@@H](C)[C@H]2[C@H](Cc3ccccc3)NC(=O)[C@]23[C@H](OC(C)=O)/C=C/[C@@](C)(O)C(=O)[C@@H](C)C/C=C/[C@H]3[C@@H]1O [Cytochalasin D],force exerted by a single cell (force vs. time) when Cytochalasin D is removed,after removal of Cytochalasin D,recovery of the force
same,force exerted by a single cell (force vs. time) when Cytochalasin D is introduced,stable force in growth media before,collapse of that force
